Assay results as given in ChEMBL document CHEMBL6074690, “Development and Characterization of a High-Affinity Selective Galectin-3 Mouse Tool Compound in Mouse Models of Cancer” (J Med Chem, 2024).

Key:
[1] = Apparent permeability across apical to basal side in human Caco-2 cells at 10 uM incubated for 90 mins by LC-MS/MS analysis; format: ADME, cell-based
[2] = Apparent permeability across basal to apical side in human Caco-2 cells at 10 uM incubated for 90 mins by LC-MS/MS analysis; format: ADME, cell-based
[3] = Lipophilicity, log D of compound in potassium phosphate buffer/octanol at pH 7.4 by shake flask method; format: physicochemical
[4] = Intrinsic clearance in human hepatocytes measured per million cells at 2 uM incubated for 15 to 120 mins by LC-MS/MS analysis; format: ADME, cell-based, Hepatocyte; conditions: time 15-120 min, read-out: CLH
[5] = Intrinsic clearance in mouse hepatocytes measured per million cells at 2 uM incubated for 15 to 120 mins by LC-MS/MS analysis; format: ADME, cell-based, Hepatocyte; conditions: time 15-120 min, read-out: CLH
[6] = Unbound drug level in C57BL/6 mouse at 30 mg/kg, po measured for 12 hrs; format: ADME, organism-based; conditions: in vivo

| Papp A→B at […], 10 µM [1] [×10⁻⁶ cm/s] | Papp B→A at […], 10 µM [2] [×10⁻⁶ cm/s] | logD [3] | hepatocyte CLint at 2 µM [4] [µL/min/1e6 cells] | hepatocyte CLint at 2 µM [5] [µL/min/1e6 cells] | Drug uptake(free) [6] | SMILES |
| --- | --- | --- | --- | --- | --- | --- |
| […] | […] | […] | 0.15 | […] |  | OC[C@H]1O[C@@H](Sc2cncc(Br)c2)[C@H](O)[C@@H](n2cc(-c3cc(F)c(F)c(F)c3)nn2)[C@H]1O |
| […] | […] | 4.6 | 0.7 | 0.8 |  | OC[C@H]1O[C@@H](Sc2ccc(Cl)c(Cl)c2)[C@H](O)[C@@H](n2cc(-c3cc(F)c(F)c(F)c3)nn2)[C@H]1O |
|  | 17 | > 4 |  | 0.6 | Active | OC[C@H]1O[C@@H](Sc2cncc(Br)c2)[C@H](O)[C@@H](n2cc(-c3cc(F)c(Cl)c(F)c3)nn2)[C@H]1O |
